Assay results reported in patent US11033527B2, “Non-hormonal treatment of the genitourinary syndrome of menopause” (IMMUGEN PHARMA LLC, priority 2018, dated 2021).

Legend:
[1] = system: vaginal tissue construct; assay: microarray analysis of differential gene expression (Affymetrix Human Gene 1.0 ST arrays), tissues treated for seven days via culture medium; type: cell-based; details: for VEGFA Fold Change: gene vascular endothelial growth factor A
Description: The data from the Affymetrix Human Gene 1.0 ST arrays were normalized using the Robust Multiarray Average (RMA) algorithm and a Chip Definition File (CDF) that maps the probes on the array to unique Entrez Gene identifiers. The result is a matrix in which each column corresponds to a sample. The expression values are log 2-transformed by default.
By using a fold change >1.5, an analysis of differentially expressed genes was done to identify those genes which were involved in the cornified envelope, keratinocyte differentiation, cell differentiation, epidermis development, epithelial cell differentiation, junctional proteins and signaling, immune response and innate immune response.

[2] = system: EpiVaginal tissues; assay: macrophage infiltration in treated EpiVaginal tissues (barrier function), four hours in the presence of TNF-α; type: cell-based; details: vs. 28% into the untreated tissue; macrophages cultured with the tissue for four hours in the presence of TNF-α
Description: FIG. 1 is a graph showing macrophage infiltration in hormone (estrogen) and L759,633-treated EpiVaginal tissues. L759,633 had the most striking effect on macrophage infiltration: only 6% of cells infiltrated into the tissue past 90 μm (vs. 28% into the untreated tissue, p<0.006 ANOVA). […] U=untreated control; E=estradiol; P=progesterone; and IMG=the cannabinoid L759,633.
Many of the above-noted genes are differentially regulated by estradiol in menopausal tissue. […] With respect to the barrier function, only 6% of macrophages which had been cultured with the tissue for four hours in the presence of TNF-α were capable of infiltrating into the tissue past 90 um (vs. 28% into the untreated tissue, p<0.006 ANOVA). […] This would indicate that the increased gene expression of the proteins involved with cross-linking of the keratin fibers, filagrins and desmosomal cadherins are all contributing to the fortification of the vaginal mucosa which would prevent the infiltration of pathogens and prevent the loss of solutes and water from within the tissue.

C[C@]12CC[C@@H]3c4ccc(O)cc4CC[C@H]3[C@@H]1CC[C@@H]2O [Estradiol, 17β-estradiol, reference compound]
SPRR2D Fold Change [1]: 2.793 fold
WFDC12 Fold Change [1]: 3.103 fold
CD74 Expr Fold Change ([1]; gene CD74 molecule): −1.89 fold
CD244 Expr Fold Change ([1]; gene CD244 molecule): 2.355 fold
CDSN Fold Change ([1]; gene Corneodesmosin): 3.011 fold
CCL28 Expr Fold Change ([1]; gene C−C motif chemokine ligand 28): −1.948 fold
FYB1 Expr Fold Change ([1]; gene FYN binding protein 1): −2.225 fold
IFNE Fold Change ([1]; gene Interferon Epsilon): 2.1 fold
NLRP10 Fold Change ([1]; gene NLR family pyrin domain containing 10): 4.199 fold
RNAse7 Fold Change ([1]; gene RNAse family): 3.387 fold
TNFRSF10C Expr Fold Change ([1]; gene TNF receptor superfamily member 10c): −2.162 fold
TGM1 Fold Change ([1]; gene Transglutaminase 1): 1.406 fold
TGM3 Fold Change ([1]; gene Transglutaminase 3): 15.681 fold
TGM5 Fold Change ([1]; gene Transglutaminase 5): 1.135 fold
VTCN1 Expr Fold Change ([1]; gene V-set domain containing T cell activation inhibitor 1): −2.364 fold
WFDC5 Fold Change ([1]; gene WAP four-disulfide core domain 5): 1.2 fold
ALOX12B Fold Change ([1]; gene arachidonate 12-lipoxygenase, 12R type): 2.207 fold
ALOXE3 Fold Change ([1]; gene arachidonate lipoxygenase 3): 1.371 fold
CSF2RB Expr Fold Change ([1]; gene colony stimulating factor 2 receptor beta common subunit): 1.517 fold
CNFN Fold Change ([1]; gene cornifelin): 1.3 fold
DMKN Fold Change ([1]; gene dermokine): 2.428 fold
DCS3 Fold Change ([1]; gene descmocollin 3): 1.2 fold
DSC1 Fold Change ([1]; gene desmocollin 1): 1.673 fold
DSC2 Fold Change ([1]; gene desmocollin 2): 1.3 fold
DSG1 Fold Change ([1]; gene desmoglein 1): 4.964 fold
FLG Fold Change ([1]; gene filaggrin): 3.212 fold
FLG2 Fold Change ([1]; gene filaggrin family member 2): 2.766 fold
KPRP Fold Change ([1]; gene human keratinocyte proline rich protein): 5.557 fold
IL23A Expr Fold Change ([1]; gene interleukin 23 subunit alpha): 2.912 fold
IL36A Expr Fold Change ([1]; gene interleukin 36 alpha): 3.409 fold
IL36RN Expr Fold Change ([1]; gene interleukin 36 receptor antagonist): 2.751 fold
KLK6 Fold Change ([1]; gene kallikrein related peptidase 6): 2.769 fold
KLK8 Fold Change ([1]; gene kallikrein related peptidase 8): 1.831 fold
KLK10 Fold Change ([1]; gene kallikrein related peptidase 10): 2.043 fold
KLK12 Fold Change ([1]; gene kallikrein related peptidase 12): 4.018 fold
KLK13 Fold Change ([1]; gene kallikrein related peptidase 13): 4.626 fold
KRT1 Fold Change ([1]; gene keratin 1): 1.949 fold
KRT2 Fold Change ([1]; gene keratin 2): 1.214 fold
KRT20 Fold Change ([1]; gene keratin 20): −3.702 fold
KRT23 Fold Change ([1]; gene keratin 23): 1.891 fold
KRT24 Fold Change ([1]; gene keratin 24): 1.673 fold
KRTDAP Fold Change ([1]; gene keratinocyte differentiation associated protein): 13.936 fold
LCE1A Fold Change ([1]; gene late cornified envelope 1A): 1.307 fold
LCE1C Fold Change ([1]; gene late cornified envelope 1C): 1.262 fold
LCE1F Fold Change ([1]; gene late cornified envelope 1F): 1.317 fold
LCE2A Fold Change ([1]; gene late cornified envelope 2A): 2.026 fold
LCE2B Fold Change ([1]; gene late cornified envelope 2B): 1.89 fold
LCE2C/LCE2D Fold Change ([1]; gene late cornified envelope 2D): 1.903 fold
LCE5A Fold Change ([1]; gene late cornified envelope 5A): 1.454 fold
LIPM Fold Change ([1]; gene lipase family member M): 3.572 fold
LIPN Fold Change ([1]; gene lipase family member N): 4.57 fold
LIPN1 Fold Change ([1]; gene lipin 1): 2.831 fold
LOR Fold Change ([1]; gene loricrin): 1.207 fold
HLA-DPA1 Expr Fold Change ([1]; gene major histocompatibility complex, class II, DP alpha 1): −1.8 fold
HLA-DRA Expr Fold Change ([1]; gene major histocompatibility complex, class II, DR alpha): −2.234 fold
HLA-DRB6 Expr Fold Change ([1]; gene major histocompatibility complex, class II, DR beta 6 (pseudogene)): −2.5 fold
MUCL1 Fold Change ([1]; gene mucin like 1): 2.857 fold
PLA2G2F Fold Change ([1]; gene phospholipase A2 group IIF): 1.824 fold
PLA2G3 Fold Change ([1]; gene phospholipase A2 group III): 1.64 fold
PLA2G4D Fold Change ([1]; gene phospholipase A2 group IVD): 2.046 fold
PLA2G4E Fold Change ([1]; gene phospholipase A2 group IVE): 2.442 fold
PLA2G10 Fold Change ([1]; gene phospholipase A2 group X): −2.948 fold
SERPINB12 Fold Change ([1]; gene serpin family B member 12): 1.3 fold
SPRR2G Fold Change ([1]; gene small proline rich protein 2G): 4.664 fold
SPRR4 Fold Change ([1]; gene small proline rich protein 4): 2.669 fold
SLC44A4 Fold Change ([1]; gene solute carrier family 44 member 4): −1.8 fold
SBSN Fold Change ([1]; gene suprabasin): 3.449 fold
TLR3 Expr Fold Change ([1]; gene toll like receptor 3): −2.081 fold
TRPV3 Fold Change ([1]; gene transient receptor potential cation channel subfamily V member 3): 1.6 fold
VEGFA Fold Change [1]: 1.2 fold
VEGFA Fold Change ([1]; listed as estradiol): 2.2 fold
HLA-DMA expression ([1]; result in words): down-regulate
HLA-DMB expression ([1]; result in words): down-regulate
macrophages infiltrated into the tissue past 90 μm [2]: 16%
